# Laboratory results as given in patent publication US6780995B2, “Activated iododerivatives for the treatment of cancer and aids” (Isotechnika Inc., priority 1997, dated 2004).
# Read-outs that look alike come from different tables or passages of the source.
# Experiments:
# SK-MEL-5 cells = test: IC50 assay, inhibition of cell proliferation and growth, SK-MEL-5; assay type: cell-based, human
# Experimental: (§1) Cell culture: The human cell lines were propagated under sterile conditions in RPMI 1640 (CellGrow) with 10% fetal bovine serum (Hyclone), 2 mM L-glutamine, and sodium bicarbonate (complete medium) and incubated at 37° C. in HEPA-filtered Sterilcult CO2 tissue culture incubators (Forma) with 5% CO^2 and 95% humidity (Table 1). The murine leukemia cell lines were propagated in Dulbecco's MEM media with 10% equine serum (Hyclone), 2 mM L-glutamine, and sodium bicarbonate (complete medium) and incubated as described. The cells were subcultured twice weekly and used in experiments. The culture was screened for mycoplasma contamination using GeneProbe™ (Fisher) and positive cultures were cured of contaminants over three passages using constant treatment with BM-Cyclin™ antibiotic combination (Boehringer Mannheim). Only cultures confirmed as mycoplasma free were used in testing compounds for anticellular activity.
# (§2) The test compounds were stored at 4° C. under light protected conditions. The test compounds were weighed and dissolved in DMSO. The dissolved compounds were then serially diluted in warm medium (RPMI 1640 or Dulbecco's MEM) under constant mixing to minimize precipitation. The positive control drug doxorubicin was diluted in water followed by dilution in media to achieve a final concentration of 200 nM.
# (§3) For all experiments, the cells were harvested and centrifuged to remove the media, and suspended in fresh completed medium. Samples were taken to determine cell density. The cell count was determined with a Coulter Model Z1 cell counter and viability was measured with propidium iodide staining followed by analysis on a Coulter EPPICS Elite Flow cytometer. The cell samples sere adjusted with complete medium to a density of 5×10^4/mL for adherent cell lines and 1×10^5/mL for suspension lines. Tissue culture cluster plates (96 well, cat. No. 3595 Costar for adherent human lines and cat No. 25850 Corning for murine leukemias) were seeded with 100 μL cells and incubated as described. Replicate groups of plates were set up for each line to accommodate the exposure options for single agents and combinations. For each dilution 8 wells (100 μL samples of cells) were treated with 100 μL of dosing solution one day after plating. Each cluster plate contained a cell control (8 wells, mock-treated with complete medium), a medium control (3 wells with medium used to subtract out signal generated by media conditions), and an air blank (1 well, for calibrating the plate reader).
# (§4) Anticellular effects of the compounds for the adherent cell lines were assessed with neutral red dye. On the day of analysis, the media was removed from sample cell monolayers and replaced with 0.1 mL of neutral red solution (0.5% neutral red, HBSS:RPMI 1640 (1:1), 0.05 M HEPES, pH 7.2). After incubation of the samples at 37° C. for 1 hour the excess dye was removed with blotting and the monolayers were washed twice with 0.85% NaCl solution (0.1 mL per wash). The cell associated dye was extracted by adding 0.2 mL of a 0.1 M NaH2PO4:ethanol (1:1) solution/well followed by incubation for 1 hour at 35° C. The absorbency of neutral red in each monolayer was measured at 550 nm (620 nm reference beam) on a Denley Anthos 2001 microplate reader. The data were transferred via the ARCOM software capture program in Lotus 1-2-3 for processing.
# (§5) In assays where technical difficulties due to crystalization of the neutral red occurred the crystal violet staining procedure was employed to measure the amount of cells were left on the plate. Crystal violet staining solution [0.5% crystal violet (w/v), 50% methanol (v/v), 45% saline (v/v), and 5% formalin (v/v)] were prepared on the day of staining. After the media was removed from the sample wells, two drops of crystal violet stain were added to each well and the samples were incubated at ambient temperature for 10 minutes. […]
# A549 cells = test: IC50 assay, inhibition of cell proliferation and growth, A549; assay type: cell-based, human
# Experimental: as §1, §2, §3, §4, §5
# COLO 205 cells = test: IC50 assay, inhibition of cell proliferation and growth, COLO 205; assay type: cell-based, human
# Experimental: as §1, §2, §3, §4, §5
# M14 cells = test: IC50 assay, inhibition of cell proliferation and growth, M14; assay type: cell-based, human
# Experimental: as §1, §2, §3, §4, §5
# L1210 cells = test: IC50 assay (XTT), inhibition of cell proliferation and growth, L1210; assay type: cell-based; settings: L1210 murine leukemia cell line, XTT dye conversion, read-out: IC50 Concentrations, L1210
# Experimental: as §1, §2, §3
# (§6) Anticellular effects of the murine leukemia cell lines were assessed with the XTT dye conversion assay which is more suited to suspension cultures. On the day of analysis XTT[2,3-bis(2-methoxy-4-nitro-5-sulfophenyl)-5-[(phenylamino)carbenyl]-2H-tetrazolium hydroxide, inner salt, sodium salt (Sigma)] was weighed out and dissolved at 1 mg/mL in media. PMS (phenazine methosulfate) was prepared at 5 mM in PBS (phosphate buffered saline) and stored as a stock solution 4° C. The PMS was mixed with dissolved XTT to a final concentration of 0.025 mM. Sample wells were treated with 50 μL of the XTT solution and the plates were incubated for four hours at 37° C. to allow for conversion into the liquid soluble formazan product. After the incubation period the reaction was stopped by adding 10 μL of 10% SDS solution per well and the wells contents of each plate were mixed by agitation. The absorbancy of formazan in each monolayer was measured at 450 nm (620 nm reference beam) on a Denley Anthos 2001 microplate reader. The data were transferred via the ARCOM software capture program into Lotus 1-2-3 for processing.
# (§7) Using the procedures described above, concentrations of the Example compounds necessary to inhibit cell proliferation and growth by 50% (1C50 values) were determined in the test cell lines.
# SK-OV-3 cells = test: IC50 assay, inhibition of cell proliferation and growth, SK-OV-3; assay type: cell-based, human
# Experimental: as §1, §2, §3, §4, §5
# MCF7 cells = test: IC50 assay, inhibition of cell proliferation and growth, MCF7; assay type: cell-based, human
# Experimental: as §1, §2, §3, §4, §5
# RPMI 8226 cells = test: IC50 assay, inhibition of cell proliferation and growth, RPMI 8226; assay type: cell-based; settings: Homo sapiens
# Experimental: as §1, §2, §3, §7
# B16 cells = test: IC50 assay, inhibition of cell proliferation and growth, B16; assay type: cell-based; settings: B16 murine melanoma cell line, neutral red or crystal violet, read-out: IC50 Concentrations, B16
# Experimental: as §1, §2, §3, §4, §5
# P388 cells = test: IC50 assay (XTT), inhibition of cell proliferation and growth, P388; assay type: cell-based; settings: P388 murine leukemia cell line, XTT dye conversion, read-out: IC50 Concentrations, P388
# Experimental: as §1, §2, §3, §6, §7
# [1] = Homo sapiens, SK-MEL-5 melanoma cell line, neutral red or crystal violet, read-out: IC50 Concentrations, SK MEL-5
# [2] = Homo sapiens, A549 bronchogenic cell line, neutral red or crystal violet, read-out: IC50 Concentrations, A 549
# [3] = Homo sapiens, COLO 205 colon adenocarcinoma cell line, neutral red or crystal violet, read-out: IC50 Concentrations, COLO 205
# [4] = Homo sapiens, M14 melanoma cell line, neutral red or crystal violet, read-out: IC50 Concentrations, M14
# [5] = Homo sapiens, SK-OV-3 ovarian adenocarcinoma cell line, neutral red or crystal violet, read-out: IC50 Concentrations, SK-OV-3
# [6] = Homo sapiens, MCF7 breast adenocarcinoma cell line, neutral red or crystal violet, read-out: IC50 Concentrations, MCF 7
# [7] = RPMI 8226 myeloma cell line, read-out: IC50 Concentrations, RPM 18226
# [8] = SK-MEL-5 melanoma cell line, neutral red or crystal violet, read-out: IC50 Concentrations, SK MEL-5
# [9] = A549 bronchogenic cell line, neutral red or crystal violet, read-out: IC50 Concentrations, A 549
# [10] = COLO 205 colon adenocarcinoma cell line, neutral red or crystal violet, read-out: IC50 Concentrations, COLO 205
# [11] = M14 melanoma cell line, neutral red or crystal violet, read-out: IC50 Concentrations, M14
# [12] = SK-OV-3 ovarian adenocarcinoma cell line, neutral red or crystal violet, read-out: IC50 Concentrations, SK-OV-3
Compound,IC50 (SK-MEL-5 cells; [1]),IC50 (A549 cells; [2]),IC50 (COLO 205 cells; [3]),IC50 (M14 cells; [4]),IC50 (L1210 cells; Mus musculus),IC50 (SK-OV-3 cells; [5]),IC50 (MCF7 cells; [6]),IC50 (RPMI 8226 cells; [7]),IC50 (B16 cells; Mus musculus),IC50 (P388 cells; Mus musculus),melting point,other results
"Cc1cnc(NC(=O)c2cc([N+](=O)[O-])ccc2I)s1 [Ref. No. 22, 2(2′-Iodo-5′-Nitro-Benzamido)-5-Methyl-Thiazole]",15.3 µM,45.2 µM,13.5 µM,14.5 µM,12.8 µM,16.1 µM,14.8 µM,12.7 µM,6.2 µM,3.64 µM,–,–
"O=C(NC1=NCCS1)c1cc([N+](=O)[O-])ccc1I [Ref. No. 23, 2-(2′-Iodo-5′-Nitro-Benzamido)-2-Thiazoline]",125 µM,> 500 µM,81.9 µM,150 µM,> 500 µM,> 500 µM,162 µM,237 µM,129 µM,353 µM,176 to 179 °C,–
O=C(Nc1nnc(C(F)(F)F)s1)c1cc([N+](=O)[O-])ccc1I [Ref. No. 18],28.8 µM,15.7 µM,41.3 µM,27.3 µM,28.4 µM,73 µM,24 µM,16.7 µM,20.8 µM,12.8 µM,219 to 221 °C,–
"Cc1csc(NC(=O)c2cc([N+](=O)[O-])ccc2I)n1 [Ref. No. 21, 2-(2′-Iodo-5′-Nitro-Benzamido)-4-Methyl-Thiazole]",15 µM,43.7 µM,5.59 µM,13.2 µM,12.8 µM,15.7 µM,12.5 µM,3.33 µM,5.13 µM,3.44 µM,–,–
N-(3′-Pyridyl)-2-Iodo-5-Nitrophenyl Hydrazide [Ref. No. 11],–,–,–,–,–,–,–,–,–,–,–,IC50 (SK-MEL-5 cells; [8]): 413 µM; IC50 (A549 cells; [9]): 387 µM; IC50 (COLO 205 cells; [10]): 111 µM; IC50 (M14 cells; [11]): 467 µM; IC50 (L1210 cells): ≥ 55.6 µM; IC50 (SK-OV-3 cells; [12]): 381 µM; IC50 (B16 cells): 129 µM; IC50 (P388 cells): > 55.6 µM
"O=C(NCCCCCCNC(=O)c1cc([N+](=O)[O-])ccc1I)c1cc([N+](=O)[O-])ccc1I [Ref. No. 24, 1,6-Di-(2′-Iodo-5′-Nitro-Benzamido)-Hexane]",–,–,–,–,–,–,–,–,–,–,–,"IC50 (SK-MEL-5 cells; Homo sapiens, SK-MEL-5, read-out: IC50 Concentrations, SK MEL-5): > 500 µM; IC50 (A549 cells; Homo sapiens, A549, read-out: IC50 Concentrations, A 549): > 500 µM; IC50 (COLO 205 cells; Homo sapiens, COLO 205, read-out: IC50 Concentrations, COLO 205): > 500 µM; IC50 (M14 cells; Homo sapiens, M14, read-out: IC50 Concentrations, M14): > 500 µM; IC50 (SK-OV-3 cells; Homo sapiens, SK-OV-3, read-out: IC50 Concentrations, SK-OV-3): > 500 µM; IC50 (MCF7 cells; Homo sapiens, MCF7, read-out: IC50 Concentrations, MCF 7): > 500 µM; IC50 (RPMI 8226 cells; RPMI-8226, read-out: IC50 Concentrations, RPM 18226): > 500 µM"
CCOC(=O)c1sc(NC(=O)c2cc([N+](=O)[O-])ccc2I)nc1C [Ref. No. 16],41.7 µM,30.1 µM,31.2 µM,37.3 µM,41.1 µM,41.2 µM,34.3 µM,10.6 µM,7.93 µM,11.2 µM,211 to 212 °C,–
"Cc1ccc(-c2csc(NC(=O)c3cc([N+](=O)[O-])ccc3I)n2)cc1 [Ref. No. 19, 2(2′-Iodo-5′-Nitro-Benzamido)-4-tolyl-Thiazole]",51.3 µM,163 µM,18.2 µM,14.4 µM,13.5 µM,33.2 µM,35.5 µM,11.8 µM,5.15 µM,2.43 µM,244 to 248 °C,–
N-(4′-Pyridyl)-2-Iodo-5-Nitrophenyl Hydrazide [Ref. No. 10],–,–,–,–,–,–,–,–,–,–,–,"IC50 (SK-MEL-5 cells; [8]): > 500 µM; IC50 (A549 cells; [9]): > 500 µM; IC50 (COLO 205 cells; [10]): 441 µM; IC50 (M14 cells; [11]): > 500 µM; IC50 (L1210 cells): > 18.5 µM; IC50 (SK-OV-3 cells; [12]): 361 µM; IC50 (MCF7 cells; MCF7 breast adenocarcinoma cell line, neutral red or crystal violet, read-out: IC50 Concentrations, MCF 7): > 500 µM; IC50 (B16 cells): 301 µM; IC50 (P388 cells): > 18.5 µM"
